Assay results: ChEMBL document CHEMBL3112510, “Optimization, pharmacophore modeling and 3D-QSAR studies of sipholanes as breast cancer migration and proliferation inhibitors” (Eur J Med Chem, 2014)
The source made the active and inactive calls. No cut-off for these calls is given here.

Tests used:
[1] = tested on: MDA-MB-231; assay: Antiproliferative activity against human MDA-MB-231 cells after 72 hrs by MTT assay; conditions: MDA-MB-231, 72 h
[2] = tested on: MDA-MB-231; assay: Antimigratory activity in human MDA-MB-231 cells after 24 hrs by wound healing assay; conditions: MDA-MB-231, 24 h
[3] = tested on: MCF7; assay: cells; conditions: Homo sapiens, MCF7, 72 h
[4] = Cytotoxicity against human MCF10A cells at => IC50 of wound healing assay after 24 hrs by MTT assay; conditions: mcf-10a
[5] = Cytotoxicity against human MCF10A cells at => IC50 of antiproliferative assay after 24 hrs by MTT assay; conditions: mcf-10a
[6] = biological target: Protein-tyrosine kinase 6 (Homo sapiens) (UniProt Q13882); assay: Inhibition of PTK6 phosphorylation in human MDA-MB-231 cells at 20 uM after 72 hrs by Western blot analysis; type: cell-based
Protein-tyrosine kinase 6 (Homo sapiens), sequence (Q13882 whole entry, looked up): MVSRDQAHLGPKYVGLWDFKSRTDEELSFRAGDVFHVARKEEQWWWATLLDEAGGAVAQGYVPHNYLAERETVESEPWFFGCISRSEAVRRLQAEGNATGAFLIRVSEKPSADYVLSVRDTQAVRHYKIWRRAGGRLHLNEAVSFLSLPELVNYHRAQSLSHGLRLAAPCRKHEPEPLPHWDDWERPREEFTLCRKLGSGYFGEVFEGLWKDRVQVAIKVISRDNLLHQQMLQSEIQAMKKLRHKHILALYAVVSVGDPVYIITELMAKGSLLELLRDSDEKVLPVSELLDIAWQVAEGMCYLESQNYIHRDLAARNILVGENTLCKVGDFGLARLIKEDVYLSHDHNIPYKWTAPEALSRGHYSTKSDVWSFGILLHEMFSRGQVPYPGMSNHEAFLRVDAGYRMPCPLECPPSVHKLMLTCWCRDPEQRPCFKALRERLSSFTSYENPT

Compound | IC50 [1] [µM] | IC50 [2] [µM] | IC50 ([2]; read-out: pIC50 (converted)) [µM] | IC50 [3] [µM] | Activity [4] | Activity [5] | inhibition [6]
CC1=CC[C@H]2[C@H](CC[C@]2(C)O)C(C)(C)[C@@H]1CC[C@H]1[C@]2(C)CC[C@H](OC(=O)c3ccccc3C(F)(F)F)C(C)(C)O[C@H]2CC[C@@]1(C)O | 31.5 | 34.5 | 34.5 | 19.2 | Non-toxic | Non-toxic | –
CC1=CC[C@H]2[C@H](CC[C@]2(C)O)C(C)(C)[C@@H]1CC[C@H]1[C@]2(C)CC[C@H](OC(=O)c3ccccc3[N+](=O)[O-])C(C)(C)O[C@H]2CC[C@@]1(C)O | 38.7 | 18.6 | 18.6 | 5.2 | Non-toxic | Non-toxic | –
CC1=CC[C@H]2[C@H](CC[C@]2(C)O)C(C)(C)[C@@H]1CC[C@H]1[C@]2(C)CC[C@H](OC(=O)c3ccc(C(F)(F)F)cc3)C(C)(C)O[C@H]2CC[C@@]1(C)O | 19.5 | 7.8 | 7.8 | 23.4 | Non-toxic | Non-toxic | –
CC1=CC[C@H]2[C@H](CC[C@]2(C)O)C(C)(C)[C@@H]1CC[C@H]1[C@]2(C)CC[C@H](OC(=O)c3ccc(C(F)(F)F)cc3F)C(C)(C)O[C@H]2CC[C@@]1(C)O | 36.3 | 26.4 | 26.4 | > 50 | Non-toxic | Non-toxic | –
CC1=CC[C@H]2[C@H](CC[C@]2(C)O)C(C)(C)[C@@H]1CC[C@H]1[C@]2(C)CC[C@H](OC(=O)c3ccccc3F)C(C)(C)O[C@H]2CC[C@@]1(C)O | 28.7 | 22.7 | 22.7 | 11.3 | Non-toxic | Non-toxic | –
CC1=CC[C@H]2[C@H](CC[C@]2(C)O)C(C)(C)[C@@H]1CC[C@H]1[C@]2(C)CC[C@H](OC(=O)c3ccccc3)C(C)(C)O[C@H]2CC[C@@]1(C)O | 16.1 | 7.9 | 7.91 | 21 | – | – | Active
CC1=CC[C@H]2[C@H](CC[C@]2(C)O)C(C)(C)[C@@H]1CC[C@H]1[C@]2(C)CC[C@H](OC(=O)c3ccc(F)cc3)C(C)(C)O[C@H]2CC[C@@]1(C)O | 11.3 | 2.4 | 2.4 | 33.5 | Non-toxic | Non-toxic | –
CC1=CC[C@H]2[C@H](CC[C@]2(C)O)C(C)(C)[C@@H]1CC[C@H]1[C@]2(C)CC[C@H](OC(=O)c3ccco3)C(C)(C)O[C@H]2CC[C@@]1(C)O | 14 | 9.3 | 9.29 | 25.7 | Non-toxic | Non-toxic | –
CC1=CC[C@H]2[C@H](CC[C@]2(C)O)C(C)(C)[C@@H]1CC[C@H]1[C@]2(C)CC[C@H](OC(=O)c3ccc([N+](=O)[O-])cc3)C(C)(C)O[C@H]2CC[C@@]1(C)O | 8.9 | 3.4 | 3.35 | 21.6 | Non-toxic | Non-toxic | –
CC1=CC[C@H]2[C@H](CC[C@]2(C)O)C(C)(C)[C@@H]1CC[C@H]1[C@]2(C)CC[C@H](OC(=O)c3ccccc3Cl)C(C)(C)O[C@H]2CC[C@@]1(C)O | 24.3 | 6.1 | – | 12.1 | Non-toxic | Non-toxic | –
COc1ccc(C(=O)O[C@H]2CC[C@]3(C)[C@H](CC[C@@](C)(O)[C@H]3CC[C@@H]3C(C)=CC[C@H]4[C@H](CC[C@]4(C)O)C3(C)C)OC2(C)C)cc1 | 30.6 | 17.9 | 17.9 | 41.7 | Non-toxic | Non-toxic | –
